Reference: patent US9695155B2, “Herbicidal substituted pyrimidinyloxy benzene compounds” (E. I. DU PONT DE NEMOURS AND COMPANY, priority 2013, dated 2017)

Legend:
Assay in all cases: Test C preemergence
blackgrass = format: in vivo, Alopecurus myosuroides; conditions: for Blackgrass plant response rating: preemergence; for Plant response rating, Blackgrass: Preemergence, 31 g ai/ha, scale 0 to 100, 0 no effect, 100 complete control
How it was run: (§1)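 Seeds are planted in blended loam soil and sand and treated preemergence, while seedlings in a peat moss/vermiculite medium receive postemergence sprays at 2 to 18 cm height. All plants stay in the greenhouse for 13 to 15 days before visual comparison with controls on a 0–100 scale.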

Italian ryegrass = format: in vivo, Lolium multiflorum; conditions: preemergence
How it was run: as §1

large (Lg) crabgrass = format: in vivo, Digitaria sanguinalis; conditions: for Crabgrass, Large plant response rating: preemergence; for Plant response rating, Crabgrass, Large: Preemergence, 31 g ai/ha, scale 0 to 100, 0 no effect, 100 complete control
How it was run: as §1

giant foxtail = format: in vivo, Setaria faberii; conditions: for Foxtail, Giant plant response rating: preemergence; for Plant response rating, Foxtail, Giant: Preemergence, 31 g ai/ha, scale 0 to 100, 0 no effect, 100 complete control
How it was run: as §1

johnsongrass = format: in vivo, Sorghum halepense; conditions: preemergence
How it was run: as §1

lambsquarters = format: in vivo, Chenopodium album; conditions: preemergence
How it was run: as §1

morningglory = format: in vivo, Ipomoea coccinea; conditions: preemergence
How it was run: as §1

yellow nutsedge = format: in vivo, Cyperus esculentus; conditions: preemergence
How it was run: as §1

pigweed = format: in vivo, Amaranthus retroflexus; conditions: preemergence
How it was run: as §1

soybean = format: in vivo, Glycine max; conditions: preemergence
How it was run: as §1

barnyardgrass = format: in vivo, Echinochloa crus-galli; conditions: for Barnyardgrass plant response rating: preemergence; for Plant response rating, Barnyardgrass: Preemergence, 31 g ai/ha, scale 0 to 100, 0 no effect, 100 complete control
How it was run: as §1

oilseed rape = format: in vivo, Brassica napus; conditions: preemergence
How it was run: as §1

waterhemp = format: in vivo, Amaranthus rudis; conditions: preemergence
How it was run: as §1

velvetleaf = format: in vivo, Abutilon theophrasti; conditions: preemergence
How it was run: as §1

[1] = 16 g ai/ha, scale 0 to 100 (0 no effect, 100 complete control)
[2] = 62 g ai/ha, scale 0 (no effect) to 100 (complete control)
[3] = 125 g ai/ha, scale 0 (no effect) to 100 (complete control)

## Fc1cnc(Oc2cccc(C(F)F)c2-n2cc(C(F)(F)F)cn2)nc1 [Compound 164]
blackgrass; [1]
  Blackgrass plant response rating: 0
blackgrass; [2]
  Blackgrass plant response rating: 90
blackgrass; [3]
  Blackgrass plant response rating: 90
blackgrass
  Plant response rating, Blackgrass: 50
Italian ryegrass; [1]
  Ryegrass, Italian plant response rating: 0
Italian ryegrass; [2]
  Ryegrass, Italian plant response rating: 65
Italian ryegrass; [3]
  Ryegrass, Italian plant response rating: 98
Large (Lg) crabgrass; [1]
  Crabgrass, Large plant response rating: 75
Large (Lg) crabgrass; [2]
  Crabgrass, Large plant response rating: 100
Large (Lg) crabgrass; [3]
  Crabgrass, Large plant response rating: 100
Large (Lg) crabgrass
  Plant response rating, Crabgrass, Large: 85
Giant foxtail; [1]
  Foxtail, Giant plant response rating: 40
Giant foxtail; [2]
  Foxtail, Giant plant response rating: 100
Giant foxtail; [3]
  Foxtail, Giant plant response rating: 100
Giant foxtail
  Plant response rating, Foxtail, Giant: 95
johnsongrass; [1]
  Johnsongrass plant response rating: 5
johnsongrass; [2]
  Johnsongrass plant response rating: 75
johnsongrass; [3]
  Johnsongrass plant response rating: 80
lambsquarters; [1]
  Lambsquarters plant response rating: 70
lambsquarters; [2]
  Lambsquarters plant response rating: 100
lambsquarters; [3]
  Lambsquarters plant response rating: 98
morningglory; [1]
  Morningglory plant response rating: 10
morningglory; [2]
  Morningglory plant response rating: 85
morningglory; [3]
  Morningglory plant response rating: 100
Yellow nutsedge; [1]
  Nutsedge, Yellow plant response rating: 0
Yellow nutsedge; [2]
  Nutsedge, Yellow plant response rating: 20
Yellow nutsedge; [3]
  Nutsedge, Yellow plant response rating: 25
pigweed; [1]
  Pigweed plant response rating: 98
pigweed; [2]
  Pigweed plant response rating: 100
pigweed; [3]
  Pigweed plant response rating: 98
soybean; [1]
  Soybean plant response rating: 0
soybean; [2]
  Soybean plant response rating: 65
soybean; [3]
  Soybean plant response rating: 95
barnyardgrass; [1]
  Barnyardgrass plant response rating: 15
barnyardgrass; [2]
  Barnyardgrass plant response rating: 98
barnyardgrass; [3]
  Barnyardgrass plant response rating: 100
barnyardgrass
  Plant response rating, Barnyardgrass: 70
Oilseed rape; [1]
  Oilseed Rape plant response rating: 70
Oilseed rape; [2]
  Oilseed Rape plant response rating: 100
Oilseed rape; [3]
  Oilseed Rape plant response rating: 100
waterhemp; [1]
  Waterhemp plant response rating: 85
waterhemp; [2]
  Waterhemp plant response rating: 100
waterhemp; [3]
  Waterhemp plant response rating: 100
velvetleaf; [1]
  Velvetleaf plant response rating: 50
velvetleaf; [2]
  Velvetleaf plant response rating: 100
velvetleaf; [3]
  Velvetleaf plant response rating: 100

## FC(F)c1cccc(Oc2ncc(Cl)cn2)c1-n1cc(C(F)(F)F)cn1 [Compound 170]
blackgrass; [1]
  Blackgrass plant response rating: 0
blackgrass; [2]
  Blackgrass plant response rating: 90
blackgrass; [3]
  Blackgrass plant response rating: 90
blackgrass
  Plant response rating, Blackgrass: 80
Italian ryegrass; [1]
  Ryegrass, Italian plant response rating: 5
Italian ryegrass; [2]
  Ryegrass, Italian plant response rating: 75
Italian ryegrass; [3]
  Ryegrass, Italian plant response rating: 90
Large (Lg) crabgrass; [1]
  Crabgrass, Large plant response rating: 25
Large (Lg) crabgrass; [2]
  Crabgrass, Large plant response rating: 100
Large (Lg) crabgrass; [3]
  Crabgrass, Large plant response rating: 100
Large (Lg) crabgrass
  Plant response rating, Crabgrass, Large: 95
Giant foxtail; [1]
  Foxtail, Giant plant response rating: 80
Giant foxtail; [2]
  Foxtail, Giant plant response rating: 98
Giant foxtail; [3]
  Foxtail, Giant plant response rating: 100
Giant foxtail
  Plant response rating, Foxtail, Giant: 85
johnsongrass; [1]
  Johnsongrass plant response rating: 0
johnsongrass; [2]
  Johnsongrass plant response rating: 70
johnsongrass; [3]
  Johnsongrass plant response rating: 85
lambsquarters; [1]
  Lambsquarters plant response rating: 90
lambsquarters; [2]
  Lambsquarters plant response rating: 100
lambsquarters; [3]
  Lambsquarters plant response rating: 100
morningglory; [1]
  Morningglory plant response rating: 0
morningglory; [2]
  Morningglory plant response rating: 40
morningglory; [3]
  Morningglory plant response rating: 100
Yellow nutsedge; [1]
  Nutsedge, Yellow plant response rating: 0
Yellow nutsedge; [2]
  Nutsedge, Yellow plant response rating: 15
Yellow nutsedge; [3]
  Nutsedge, Yellow plant response rating: 55
pigweed; [1]
  Pigweed plant response rating: 100
pigweed; [2]
  Pigweed plant response rating: 100
pigweed; [3]
  Pigweed plant response rating: 100
soybean; [1]
  Soybean plant response rating: 5
soybean; [2]
  Soybean plant response rating: 45
soybean; [3]
  Soybean plant response rating: 55
barnyardgrass; [1]
  Barnyardgrass plant response rating: 10
barnyardgrass; [2]
  Barnyardgrass plant response rating: 100
barnyardgrass; [3]
  Barnyardgrass plant response rating: 100
barnyardgrass
  Plant response rating, Barnyardgrass: 55
Oilseed rape; [1]
  Oilseed Rape plant response rating: 70
Oilseed rape; [2]
  Oilseed Rape plant response rating: 98
Oilseed rape; [3]
  Oilseed Rape plant response rating: 95
waterhemp; [1]
  Waterhemp plant response rating: 100
waterhemp; [2]
  Waterhemp plant response rating: 100
waterhemp; [3]
  Waterhemp plant response rating: 100
velvetleaf; [1]
  Velvetleaf plant response rating: 25
velvetleaf; [2]
  Velvetleaf plant response rating: 80
velvetleaf; [3]
  Velvetleaf plant response rating: 100
